Test system: T1, TreS (recombinant trehalose synthase)
T1 construct: pET-22b(+), E. coli BL21(DE3), Ni-NTA; His6 tag kept (C-terminal per Methods, N-terminal with 13 extra residues per Results)
Assay: HPLC-RID of sugars, Lineweaver-Burk
Format: biochemical, uncultured bacterium
Conditions: pH 9.0, 45 °C, 30 min, 200 mM sodium phosphate

| Km | SMILES |
| --- | --- |
| 9 ± 1.2 mM | OC[C@H]1O[C@H](O[C@H]2[C@H](O)[C@@H](O)C(O)O[C@@H]2CO)[C@H](O)[C@@H](O)[C@@H]1O (some centres unmarked) [maltose] |
| 64 ± 3.5 mM | OC[C@H]1O[C@H](O[C@H]2O[C@H](CO)[C@@H](O)[C@H](O)[C@H]2O)[C@H](O)[C@@H](O)[C@@H]1O [trehalose] |
